Assay results from PubChem BioAssay AID1219 (NMMLSC, 2008).
Records with an inconclusive call do not appear. Active and inactive are the calls of the source.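 Rule for the calls: active = score of 100, fluorescent reporter fully moved to nucleus as with estrogen, or estrogen effect fully blocked; inactive = score of 0 or 50, partial or no effect.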

Molecular target: G-protein coupled estrogen receptor 1 (Homo sapiens) (UniProt Q99527)
Test: GPR30 agonism via PIP3 reporter nuclear relocation, confirmation, orthogonal assay for GPR30 ligand project, imaging, Cos7 GPR30-GFP, PH-RFP, Akt PH domain (AID 1219)
Conditions: at 10 µM, stronger effect = higher value

Structure (SMILES)	translocation response score
O=C(O)c1cc(Cl)c2c(c1)[C@@H]1C=CC[C@@H]1[C@H](c1ccc(S(=O)(=O)N3CCOCC3)cc1)N2	50 (inactive)
O=C(O)c1ccc2c(c1)C1C(Cl)C(Sc3ccccc3[N+](=O)[O-])CC1C(c1cccc([N+](=O)[O-])c1)N2 (configuration not stated)	0 (inactive)
Cc1cc(-c2nn3c(-c4ccccc4)nnc3s2)c2ccccc2n1	100
COc1cccc(NS(=O)(=O)c2ccc3c(c2)C2C=CCC2C(c2ccc(C(=O)O)cc2)N3)c1 (configuration not stated)	50 (inactive)
Cc1cc(C)c2c(c1)[C@@H]1C=CC[C@@H]1[C@H](c1ccc(S(=O)(=O)N3CCOCC3)cc1)N2	100
Nc1ncnc2c1ncn2C1CCC(CO)C(O)C1 (configuration not stated)	50 (inactive)
COc1ccccc1N1CCN(C(=O)c2ccc3nc(-c4ccco4)c(-c4ccco4)nc3c2)CC1	100
